Test results: paper PMC10402865, “Fragment-based design, synthesis and biological evaluation of theophylline derivatives as ATAD2 inhibitors in BT-549 cells” (Journal of Enzyme Inhibition and Medicinal Chemistry, 2023)

Tests used:
[1] = target: T1, ATAD2 recombinant bromodomain protein (Homo sapiens, UniProt Q6PL18); experiment: ATAD2 enzymatic assay by TR-FRET technology; type: binding; settings: TR-FRET; for IC50: mean ± SD, read-out: Kinase inhibitory activity (IC50, μM) ATAD2
T1 sequence (Q6PL18 980-1092 limits assumed): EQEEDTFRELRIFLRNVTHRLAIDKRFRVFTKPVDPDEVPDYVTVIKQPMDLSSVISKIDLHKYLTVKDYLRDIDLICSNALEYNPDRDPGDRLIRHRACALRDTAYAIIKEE
Experimental: The assay was performed by TR-FRET technology using recombinant bromodomain and BET Ligand[8]. The compounds were diluted with indicated folds in 5% DMSO in reaction buffer and 2 µl of the dilution was added to a 20 µl reaction so that the final concentration of DMSO is 0.5% in all of the reactions. The 20 µl reaction mixture consists of the ATAD2 recombinant bromodomain protein, the indicated amount of the inhibitor, ligand, and the reactive dyes. The reaction mixture was incubated for 3 h before reading the TR-FRET signal. Fluorescence signals for both the donor and acceptor dyes were measured using a Tecan Infinite M1000 plate reader. Binding experiments were performed in duplicate at each concentration and the data were analysed using GraphPad Prism.

BT-549 cells [2] = experiment: Cell viability (MTT) assay, anti-proliferative activity; type: cell-based; settings: for IC50: Homo sapiens, MTT, 24 h, mean ± SD
Experimental: BT-549 cells were seeded at a density of 5 × 10^4 cells/ml in a 96-well plate. Following a 24-h incubation period, the cells were exposed to various concentrations of different compounds for the specified durations. Cell viability was evaluated using an MTT assay.

[3] = tested on: ATAD2, c-Myc, and p-c-Myc^Ser62 in BT-549 cells; experiment: Western blot of ATAD2, c-Myc and p-c-Myc Ser62; type: cell-based; settings: BT-549 cells, 5, 10, 20 μM, 48h
Experimental: (§1) Cells were exposed to AM879, BAY-850 or compound 19f for the specified time intervals. Both adherent and floating cells were harvested and subsequently resuspended in a lysis buffer, followed by incubation at 4 °C for 1 h. Following centrifugation at 12,000 rpm for 20 min, the protein content of the supernatant was quantified using the BCA protein assay. Then protein were separated by 8–15% SDS-PAGE and transferred onto PVDF membranes. The membranes were blocked with blocking buffer and subjected to primary antibody incubation, followed by incubation with HRP-conjugated secondary antibody. Protein detection was achieved using ECL as the HRP substrate.

ATAD2 = settings: cited from earlier work
MDA-MB-231 cells [4] = tested on: MDA-MB-231 cells; design: method as in PMID 32174193; settings: read-out: antiproliferative activity IC50 in MDA-MB-231 cells; cited from earlier work
BT-549 cells [5] = experiment: Apoptosis assay, Annexin-V/PI double staining; type: cell-based; settings: BT-549 cells, 5, 10, 20 μM, 48h
Description: To assess apoptosis, BT-549 cells were exposed to varying concentrations of compound 19f, and apoptosis ratios were quantified via Annexin-V/PI double staining.

[6] = tested on: p-c-Myc^Ser62 in BT-549 cells; experiment: Immunofluorescence of p-c-Myc Ser62; type: cell-based; settings: 48h
Experimental: To prevent non-specific antibody binding, BT-549 cells were treated with a blocking buffer (PBS +1.5% goat serum) prior to immunofluorescence staining. The cells were subsequently incubated with a p-c-Myc^Ser62 antibody (1:200) diluted in blocking buffer and allowed to incubate overnight at 4 °C. Afterward, the cells were further incubated with fluorescent-labelled secondary antibodies for 1 h at room temperature.

BT-549 cells [7] = experiment: EdU-488 newly synthesised DNA assay; type: cell-based; settings: BT-549 cells, 5, 10, 20 μM, 48h
BT-549 cells [8] = experiment: Colony formation assay; type: cell-based
BT-549 cells [9] = experiment: 3D cell culture, cell sphere diameter; type: cell-based
Experimental: For 3D cell culture, 10,000 cells were placed in 96-well spherical plates for 24h and treated with different concentrations of compound 19f, […] or AM879. The diameter of the cell balls was measured by photographing.

MDA-MB-231 cells [10] = experiment: Cell viability (Figure S1); type: cell-based
MCF-10A cells = experiment: Cell viability (Figure S1), normal breast cells; type: cell-based
[11] = tested on: Bax, Bcl-2, Caspase-3, Caspase-8, Caspase-9, and PARP in BT-549 cells; experiment: Western blot of apoptotic marker proteins; type: cell-based; settings: BT-549 cells, 5, 10, 20 μM, 48h
Experimental: as §1

BT-549 cells [12] = experiment: Wound healing assay; type: cell-based; settings: BT-549 cells, 2.5, 5, 10, 20 μM, 48h
BT-549 cells [13] = experiment: Transwell migration assay; type: cell-based; settings: BT-549 cells, 5, 10, 20 μM, 48h
Experimental: BT-549 cells were seeded into the upper chamber of a Transwell insert at a density of 15,000 cells per well. The cells were treated with either DMSO or compound 19f for 48 h, after which non-migrated cells were removed from the upper surface, while the migrated cells were stained with crystal violet. Then, the cells were washed with PBS and imaged using a phase-contrast microscope.

[14] = tested on: MMP-2 and E-cadherin in BT-549 cells; experiment: Western blot of migration markers; type: cell-based; settings: BT-549 cells, 5, 10, 20 μM, 48h
Experimental: as §1

In the case of `CC1=C(C#N)c2nc(N)c(C#N)cc2/C1=C\c1ccc(-c2cc(C(=O)O)ccc2Cl)o1` [AM879], the IC50 [1] is reported as 3.49 ± 0.77 µM, the IC50 (BT-549 cells [2]) is reported as 4.79 ± 0.52 µM and the “expression levels of c-Myc and p-c-Myc Ser62 (western blot)” value [3] is reported as “inhibited the expression levels of c-Myc and p-c-Myc^Ser62 in a dose-dependent manner”. The “expression of ATAD2 (western blot)” value [3] was “no significant effect on the expression of ATAD2”, the IC50 (ATAD2) was 3.5 µM and the IC50 (MDA-MB-231 cells [4]) was 2.43 µM.
For `COc1cc(Cl)c(C(=O)N[C@@H](CN[C@H]2CC[C@@H](N)CC2)Cc2ccc(C#N)cc2)cc1-c1ccc(CN[C@H](C)c2ccc(C)cc2)o1` [BAY-850], the IC50 (BT-549 cells [2]) was 3.45 ± 0.59 µM, the “expression levels of c-Myc and p-c-Myc Ser62 (western blot)” value [3] was “reduced c-Myc expression and ser62 the phosphorylation at ser62 in a dose-dependent manner” and the “expression of ATAD2 (western blot)” value [3] was “inhibited the expression of ATAD2”. For the same compound, the IC50 (ATAD2) was 0.02 µM.
In the case of `COc1ccc(C(=O)NC2CCCC2)cc1NC(=O)Cn1cnc2c(=O)n(C)c(=O)n(C)c21` [Compound 19f, N-cyclopentyl-3–(2-(1,3-dimethyl-2,6-dioxo-1,2,3,6-tetrahydro-9H-purin-9-yl)acetamido)-4-methoxybenzamide], the “ATAD2 inhibitory activity, in words” value [1] is reported as “weaker ATAD2 inhibitory activity compared with BAY-850, but a stronger ATAD2 inhibitory activity than AM879”, the IC50 [1] is reported as 0.27 ± 0.05 µM and the “anti-proliferative activity in BT-549 cells, in words” value (BT-549 cells [2]) is reported as “anti-proliferative activity comparable to BAY-850 and AM879”. The “antiproliferative activity relative to the positive drug BAY-850” value (BT-549 cells [2]) was “about one-fold weaker”, the IC50 (BT-549 cells [2]) was 5.43 ± 0.71 µM and the “apoptosis induction, in words” value (BT-549 cells [5]) was “induce obvious apoptosis in a dose-dependent manner”. For the same compound, the “p-c-Myc Ser62 level compared with AM879 and BAY-850” value ([6]; BT-549 cells, 10 μM) was “more significant impact on p-c-Myc^Ser62 level than AM879, and a similar result to the BAY-850”, the “fluorescence intensity of p-c-Myc Ser62” value ([6]; BT-549 cells, 5, 10, 20 μM) was “reduce the fluorescence intensity of p-c-Myc^Ser62 in a dose-dependent manner” and the “expression levels of c-Myc and p-c-Myc Ser62 (western blot)” value [3] was “inhibited the expression levels of c-Myc and p-c-Myc^Ser62 in a dose-dependent manner”. For the same compound, the “expression of ATAD2 (western blot)” value [3] was “no significant effect on the expression of ATAD2”, the “fluorescence intensity of EdU-488” value (BT-549 cells [7]) was “reduce the fluorescence intensity of EdU-488 in a dose-dependent manner” and the colony formation ability (BT-549 cells [8]) was “inhibit the colony formation ability of BT-549 cells in a concentration-dependent manner”. The “diameter of 3D tumour cell spheres” value (BT-549 cells [9]) was “dose-dependently reduce the diameter of the 3D tumour cell spheres”, the “anti-proliferative activity in MDA-MB-231 cells, in words” value (MDA-MB-231 cells [10]) was “good anti-proliferative activity” and the “cytotoxicity to normal breast MCF-10A cells” value (MCF-10A cells) was “did not show obvious cytotoxicity”. For the same compound, the “cleavage of caspase-8” value [11] was “the cleavage of caspase-8 was not changed significantly”, the “expression of Bax, cleavage of caspase-3, caspase-9 and PARP” value [11] was “promoted the expression of Bax, the cleavage of caspase-3, caspase-9 and PARP” and the “expression of Bcl-2” value [11] was “the expression of Bcl-2 was significantly decreased”. The relative wound area (BT-549 cells [12]) was “increased the relative wound area in a dose-dependent manner”, the migrated cell number (BT-549 cells [13]) was “decreased the migrated cell number in a dose-dependent manner” and the “expression of E-cadherin and MMP-2” value [14] was “up-regulated the expression of E-cadherin and down-regulated MMP-2”.
